Laboratory results as given in US11725004B2, “(Cyano-dimethyl-methyl)-isoxazoles and -[1,3,4]thiadiazoles” (Centrexion Therapeutics Corporation, priority 2013, dated 2023).

Molecular target: human CB1R (Homo sapiens (Human), UniProt P21554)
Test: CB1 cAMP (Assay 2): in vitro testing of CB1 potency
Type: cell-based
Details: CHO cells expressing human CB1R; inhibition of forskolin-stimulated cAMP

human CB1R, sequence (P21554 whole entry): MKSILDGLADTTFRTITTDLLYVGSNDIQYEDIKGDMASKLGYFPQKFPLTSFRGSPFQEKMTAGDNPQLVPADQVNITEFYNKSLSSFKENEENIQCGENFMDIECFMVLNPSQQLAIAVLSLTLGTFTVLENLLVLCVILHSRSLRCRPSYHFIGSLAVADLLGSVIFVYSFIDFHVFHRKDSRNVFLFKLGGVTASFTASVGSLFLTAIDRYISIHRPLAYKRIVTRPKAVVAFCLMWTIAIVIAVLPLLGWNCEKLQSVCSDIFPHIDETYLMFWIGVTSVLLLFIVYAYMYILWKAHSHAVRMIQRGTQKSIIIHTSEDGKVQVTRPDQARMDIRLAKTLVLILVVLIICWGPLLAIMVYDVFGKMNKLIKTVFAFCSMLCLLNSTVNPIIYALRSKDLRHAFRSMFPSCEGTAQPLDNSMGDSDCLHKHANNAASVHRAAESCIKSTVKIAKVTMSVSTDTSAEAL

| SMILES | IC50 [µM] |
| --- | --- |
| CN(C1CCN(S(C)(=O)=O)CC1)C(C)(C)C(=O)Nc1cc(C(C)(C)C#N)no1 [Example 5] | 2.5 |
| CC(C)(C#N)c1cc(NC(=O)C(C)(C)S(=O)(=O)CCCC(F)(F)F)on1 [Example 1, N-[3-(Cyano-dimethyl-methyl)-isoxazol-5-yl]-2-methyl-2-(4,4,4-trifluoro-butane-1-sulfonyl)-propionamide] | 104 |
| CC(C)(O)c1cc(NC(=O)C(C)(C)S(=O)(=O)C2CCOCC2)on1 [Example 133 WO2010036630] | > 200 |
| CC(C)(CO)c1cc(NC(=O)C(C)(C)S(=O)(=O)CC2CCOCC2)on1 [Example 1 in WO2010036630] | > 50 |
| COCC(C)(C)c1cc(NC(=O)C(C)(C)S(=O)(=O)C2CCOCC2)on1 [Example 38 in WO2010036630] | 50 |
| CN(C1CCN(S(C)(=O)=O)CC1)C(C)(C)C(=O)Nc1cc(C(C)(C)CO)no1 [Example 47 in WO2010147792] | 3.1 |
| CN(CC1CCOCC1)C(C)(C)C(=O)Nc1nnc(C(C)(C)CO)s1 [Example 30 in WO2010147792] | 120 |
| CC(C)(O)c1cc(NC(=O)C(C)(C)S(=O)(=O)CCCC(F)(F)F)on1 [Example 134 in WO2010036630] | 26 |
| CN(CC1CCOCC1)C(C)(C)C(=O)Nc1cc(C(C)(C)C#N)no1 [Example 4] | 39.4 |
| COCC(C)(C)c1cc(NC(=O)C(C)(C)N(C)CC2CCOCC2)on1 [Example 46 in WO2010147792] | 0.923 |
| CC(C)(CO)c1cc(NC(=O)C(C)(C)S(=O)(=O)C2CCOCC2)on1 [Example 2 in WO2010036630] | 150 |
| COCC(C)(C)c1cc(NC(=O)C(C)(C)S(=O)(=O)CC2CCOCC2)on1 [Example 17 in WO2010036630] | 8.6 |
| CN(C1CCN(S(C)(=O)=O)CC1)C(C)(C)C(=O)Nc1nnc(C(C)(C)C#N)s1 [Example 8] | 69 |
| CN(CC1CCOCC1)C(C)(C)C(=O)Nc1nnc(C(C)(C)C#N)s1 [Example 7, N-[5-(Cyano-dimethyl-methyl)-[1,3,4]thiadiazol-2-yl]-2-methyl-2-[methyl-(tetrahydro-pyran-4-ylmethyl)-amino]-propionamide] | > 200 |
| CC(C)(C#N)c1cc(NC(=O)C(C)(C)S(=O)(=O)C2CCOCC2)on1 [Example 3] | > 200 |
| CN(CC1CCOCC1)C(C)(C)C(=O)Nc1cc(C(C)(C)CO)no1 [Example 7 in WO2010147792] | 8.08 |
| CC(C)(C#N)c1cc(NC(=O)C(C)(C)S(=O)(=O)CC2CCOCC2)on1 [Example 2, N-[3-(Cyano-dimethyl-methyl)-isoxazol-5-yl]-2-methyl-2-(tetrahydro-pyran-4-ylmethanesulfonyl)-propionamide] | > 200 |
| CC(C)(CO)c1cc(NC(=O)C(C)(C)S(=O)(=O)CCCC(F)(F)F)on1 [Example 7 in WO2010036630] | 28 |
